Results published in patent publication US20230151432A1, “KIF18A INHIBITORS FOR TREATMENT OF NEOPLASTIC DISEASES” (AMGEN INC., priority 2020, published 2023).
Read-outs that look alike come from different tables or passages of the source.

Experiments:
OVCAR-3 tumors = assay: OVCAR-3 Tumor Xenograft Efficacy Study (IP); settings: 100 mg/kg IP once daily for 18 consecutive days
Procedure: Mice were injected with human OVCAR-3 cells (5.0×10^6) subcutaneously in the right flank. Animals with established tumors were randomized into four groups (n=10 per group) with average tumor volume of 130 mm^3. […] Treatment started on day 24 post-tumor implantation and treatment terminal on day 42. Tumor volumes and body weights were recorded twice per week using a digital caliper and analytical lab scale, respectively. […] The percentage of tumor growth inhibition (% TGI) was calculated as % TGI relative to vehicle control: % TGI=100−[(Treated−Initial Volume)/(Control−Initial Volume)×100]. The percentage of tumor regression (% TR) was calculated as % TR compared final tumor volume to the initial tumor volume: % TR=100−[(Final Volume)/(Initial Volume)×100]. Data was graphed using GraphPad Prism 7.05. Statistical analysis was performed on treatment groups for tumor growth and blood counts using repeated measures ANOVA and one-way ANOVA, respectively, followed by Dunnett's multiple comparisons test.

[1] = test system: human foreskin fibroblast (hFSF) cells; assay: BrdU incorporation assay in normal cells; assay type: cell-based; settings: 48 hours
Procedure: (§1) The effect KIF18A inhibitor treatment has on proliferation of normal somatic cells (e.g., not neoplastic cells) was tested by assaying proliferation of human bone marrow mononuclear cells (HBMNCs), primary human foreskin fibroblast cells (hFSF) and human mammary epithelial cells via a 5-bromo-2′-deoxyuridine (BrdU) incorporation assay in which BrdU, an analog of the nucleoside thymidine, is used to identify proliferating cells (Payton et. al., Molecular Cancer Therapeutics, 17(12):2575-85 (2018)). Cells were analyzed on BD LSRFortessa flow cytometer using BD FACSDiva software (BD Biosciences), and post-acquisition data analysis was performed using FSC-Express software (De Novo). The percentage of BrdU positive gated events on the stacked DNA content histograms were reported.

[2] = test system: human mammary epithelial cells (HMEC); assay: BrdU incorporation assay in normal cells; assay type: cell-based; settings: 48 hours
Procedure: as §1

[3] = test system: five KIF18A inhibitor-sensitive cancer cell lines; assay: 6-day cell growth assay with re-plating in drug-free media; assay type: cell-based, human
Procedure: To better understand the durability of response after KIF18A inhibitor treatment, all five KIF18A inhibitor-sensitive cancer cell lines were treated with DMSO or Compound C11 in a 6-day cell growth assay, where the surviving cells were washed, collected, counted, and re-plated in drug-free growth media and cultured for additional 7 to 9 days. MCF-7 cells treated with a CDK 4/6 inhibitor was included as a cytostatic comparator.

[4] = test system: OVCAR-8 NCI/ADR-RES cells; assay: Nuclear count assay in multidrug resistant cells, with or without P-gp inhibitor; assay type: cell-based, human; settings: OVCAR-8 NCI-ADR RES subline, Count POC (FIG. 3E)
Procedure: Compound was added to the cells with a final volume of 200 μL in complete media containing 0.5% DMSO.
The plates were sealed and incubated for 1 hour at room temperature in the dark. Cells were stored at 4° C. in the dark until data acquisition. […] The Total Valid Object Count was represented as a Count POC (Percentage of DMSO Control) using the following formula:
Briefly, OVCAR-8 cells were seeded in duplicate in a Corning 96-well Flat Clear Bottom Black Polystyrene plates (Corning, N.Y.) in 100 μL of appropriate complete media at the appropriate density and grown for 24 hours. […] After 4 days (96 hours) of treatment, the cells were fixed by removing 100 μL of complete media from each well and replacing it with 100 μL of 2×formaldehyde (final 4%) and incubating the plates for 15 minutes at room temperature. […] The plates were sealed and incubated for 1 hour at room temperature in the dark. Cells were stored at 4° C. in the dark until data acquisition. […] The Total Valid Object Count was represented as a Count POC (Percentage of DMSO Control) using the following formula:
Count POC=(Total Valid Object Count in treated well)[…](Total Valid Object Count in DMSO treated wells)×100
Compound concentration and Count POC values were plotted using GraphPad Prism software (V7.0.4) and curve-fitting was performed with 4-parameter equation (variable slope). The concentration-response curves and standard deviation represent two independent experiments run in duplicate.

MDA-MB-157 TNBC cells = assay: Imaging-based Centrosome Count Assay (CCA); assay type: cell-based; settings: Homo sapiens, 24 hours of treatment
Procedure: To analyze the effects of a KIF18A inhibitor on the mitotic phenotype of cancer cells, an imaging-based Centrosome Count Assay (CCA) carried out using a KIF18A inhibitor was carried out. In preparation for plating, MDA-MB-157 TNBC cells were resuspended seven times through a 10 mL syringe with 18-G needle to create a single-cell suspension. Cells were seeded at a density of 30 000 cells per well using the BRAVO Automated Liquid Handling Platform (Agilent Technologies, Santa Clara, Calif.) into Corning 96-well Flat Clear Bottom Black Polystyrene plate (Corning, N.Y.) in 100 μL of complete media and grown for 24 hours. […] Imaging data was acquired on Cellomics ArrayScan VTI HCS Reader (SN03090745F, ThermoFisher Scientific) using the SpotDetector.V4 Assay protocol (Ver 6.6.0 (Build 8153) with a 20×objective, experiment #1 collected 100-fields per well; experiment #2 collected 67-fields per well). […] The percentage of mitotic objects with >2 pericentrin spots (proxy for centrosome number) was determined for each well. […] This represents the total valid p-Histone H3 positive mitotic object count based on the set fluorescence intensity threshold using alexa-647 (channel 3). • (3) % Selected Object pHH3. […]

## CC(C)(C)NS(=O)(=O)c1cccc(NC(=O)c2ccc(S(=O)(=O)NC(C)(C)C)cc2N2CCC3(CC2)CC3)c1 [Compound C9, 4-(N-(tert-butyl)sulfamoyl)-N-(3-(N-(tert-butyl)sulfamoyl)phenyl)-2-(6-azaspiro[2.5]octan-6-yl)benzamide]
OVCAR-3 tumors
  tumor regression: 73%

## CC(C)(CO)Nc1ccc(C(=O)Nc2cccc(S(=O)(=O)C3CCCC3)c2)c(N2CCC3(CC2)CC3)n1 [Compound C11, N-(3-(cyclopentylsulfonyl)phenyl)-6-((1-hydroxy-2-methylpropan-2-yl)amino)-2-(6-azaspiro[2.5]octan-6-yl)nicotinamide]
[1]
  BrdU incorporation relative to DMSO treated cells: not impacted at concentrations <10 μM
[2]
  BrdU incorporation relative to DMSO treated cells: not impacted at concentrations <10 μM
[3]; 6-day treatment
  cell growth and colony formation: significant decrease in cell growth and colony formation
[3]; re-plated in drug-free media, additional 7 to 9 days
  cell growth potential after drug withdrawal relative to DMSO control: marked reduction cell growth potential

## Cc1cc(NC(=O)c2ccc(NS(=O)(=O)CCO)cc2N2CCC3(CC2)CC3)nc(N2CCC(F)(F)CC2)n1 [Compound C14, N-(2-(4,4-Difluoropiperidin-1-yl)-6-methylpyrimidin-4-yl)-4-((2-hydroxyethyl)sulfonamido)-2-(6-azaspiro[2.5]octan-6-yl)benzamide]
[4]
  sensitivity of the cell line compared with PARP inhibitor, paclitaxel, doxorubicin, carboplatin: greatest sensitivity
MDA-MB-157 TNBC cells; read-out: EC50, increase in p-Histone H3 positive cells
  EC50: 79.4 nM
MDA-MB-157 TNBC cells; read-out: EC50, pericentrin spotting (>2 spots per mitotic object)
  EC50: 52.2 nM
